The star is where a group is joined. Palmitoyl = CCCCCCCCCCCCCCCC(=O)*
How the values were obtained:
LGALS3 = assay: LC-MS/MS relative protein abundance in secretome/matrisome of HDFs: LGALS3; type: cell-based, human; conditions: 8 ppm peptide, seven-day culture
Procedure: (§1) Following incubation with the peptides, liquid chromatography tandem mass spectrometry (LC-MS/MS) was used to quantify the relative abundance differences between proteins identified in the secretome/matrisome, versus an untreated control. HDFs from a donor, plated at 50,000 cells per well, were cultured with either peptide dissolved in cell culture media to achieve a final concentration of 8 ppm or with media without any peptide as a negative control. Treated and control cells were tested in triplicate. The cells were cultured as normal for five days in serum-supplemented media and then for a further two days in serum-free media (seven-day culture in total). The cell media containing the secretome (the proteins secreted by the cell) and the ECM, decellularized by incubation with EDTA (ethylenediaminetetraacetic acid), containing the matrisome (the collection of ECM associated proteins) were collected. The combined secretome and the matrisome compartments were subsequently analysed by LC-MS/MS using the following protocol.
(§2) Proteins were denatured (in urea), reduced (in dithiothreitol) and mechanically disassociated (using ultrasonication) prior to overnight digestion with trypsin (SMART Digest™ trypsin kit; Thermo Fisher). After digestion, samples were cleaned of contaminants up by removal of organic molecules and surfactants using biphasic extraction and desalted using OLIGO™ R3 Reversed Phase Resin (Thermo Fisher).
(§3) Samples (200 ng) were ran on an UltiMate® 3000 Rapid Separation Liquid Chromatographer coupled to a Q Exactive™ Hybrid Quadrupole-Orbitrap™ Mass Spectrometer for 90-minutes per sample run. Spectral data was searched again the Uniprot Human proteome database using Mascot v2.5.1. Subsequent protein identification and data-dependent quantification was performed using Progenesis QI. Normalised protein abundances were compared between each peptide treatment and control. Statistical analysis was performed within Progenesis QI using a between sample ANOVA.
(§4) The mass spectrometry data for each peptide is shown below in table 3 and FIG. 1. […] These protein families were as follows: proteoglycans, UV DNA repair proteins, basement membrane protein and cell-adhesion proteins; functional protein families with a potentially important role in dermal repair and remodelling.
(§5) The results of the above mass spectrometry experiments wherein a range of tetrapeptides are applied to HDFs to elicit a response in the expression of dermal extracellular proteins are provided in table 3 below. The protein family which the protein belongs to is also shown. Mass spectrometry results using peptide sequences, according to the invention (column 1) and not according to the present invention (columns 2, 3 and 4), are also presented within the table for comparison.

NID1 = assay: LC-MS/MS relative protein abundance in secretome/matrisome of HDFs: NID1; type: cell-based, human; conditions: 8 ppm peptide, seven-day culture
Procedure: as §1, §2, §3, §4, §5

RAD23A = assay: LC-MS/MS relative protein abundance in secretome/matrisome of HDFs: RAD23A; type: cell-based, human; conditions: 8 ppm peptide, seven-day culture
Procedure: as §1, §2, §3, §4, §5

CDH2 = assay: LC-MS/MS relative protein abundance in secretome/matrisome of HDFs: CDH2; type: cell-based, human; conditions: 8 ppm peptide, seven-day culture
Procedure: as §1, §2, §3, §4, §5

CSPG2 = assay: LC-MS/MS relative protein abundance in secretome/matrisome of HDFs: CSPG2; type: cell-based, human; conditions: 8 ppm peptide, seven-day culture
Procedure: as §1, §2, §3, §4, §5

LAMB2 = assay: LC-MS/MS relative protein abundance in secretome/matrisome of HDFs: LAMB2; type: cell-based, human; conditions: 8 ppm peptide, seven-day culture
Procedure: as §1, §2, §3, §4, §5

Collagen 1 (PIP) = assay: ELISA assay of collagen I (via PIP) in culture supernatant of human dermal fibroblasts; type: cell-based; conditions: 5 ppm peptide; normal human dermal fibroblasts; 72 hours; ELISA weighted to viable cells
Procedure: (§6) An ELISA is an immunological assay commonly used to measure presence and abundance of a specific proteins (antibodies, antigens, proteins and glycoproteins) in biological samples. In this case ELISAs are being used to quantify the expression of dermal extracellular proteins collagen-1, decorin, and fibronectin. The quantity of collagen I is evaluated via the quantity of PIP (“carboxU-terminal pro-peptide of procollagen type I”) which is a peptide fragment resulting from the enzymatic degradation of procollagen present outside the fibroblast in the culture supernatant medium. […]
(§7) Normal human dermal fibroblasts cells (HDFs) were cultured in contact with the tetrapeptides of the present invention, or composition without the peptide (negative control), for 72 hours. Thereafter the cultured supernatants were removed, and the quantity of dermal extracellular proteins determined using an ELISA assay for the protein of interest. For the ELISA quantification, cell viability was calculated using Hoechst staining allowing the quantity of dermal proteins to be weighted to the number of viable cells.
The quantity of collagen I is evaluated using the quantity of PIP (“carboxU-terminal pro-peptide of procollagen type I”) which is a peptide fragment resulting from the enzymatic degradation of procollagen present outside the fibroblast in the culture supernatant medium. […]

[1] = tested on: proteoglycans, UV DNA repair proteins, basement membrane protein and cell-adhesion proteins; assay: LC-MS/MS protein families overview (bubble plot FIG. 1) in HDFs; type: cell-based, human; conditions: 8 ppm peptide, result in words
Procedure: as §1, with “protocol. […]” for “protocol.”
Samples (200 ng) were ran on an UltiMate® 3000 Rapid Separation Liquid Chromatographer coupled to a Q Exactive™ Hybrid Quadrupole-Orbitrap™ Mass Spectrometer for 90-minutes per sample run. […] Subsequent protein identification and data-dependent quantification was performed using Progenesis QI. […]

Fibronectin = assay: ELISA assay of fibronectin in culture supernatant of human dermal fibroblasts; type: cell-based; conditions: 5 ppm peptide; normal human dermal fibroblasts; 72 hours; ELISA weighted to viable cells
Procedure: as §6, §7
(§8) The effect of the QTAV tetrapeptide on ECM protein expression by fibroblasts as measured by ELISA (column 1) versus tetrapeptide not conforming to the QTAV structure (column 2) are presented in the table below (table 1). Results are expressed as % increase versus the negative control.

Fibrillin-1 = assay: Immunofluorescence of Fibrillin-1 fibre abundance in primary human dermal fibroblasts; type: cell-based; conditions: HDF cells, 5 days
Procedure: Immunofluorescence relies on the use of antibodies to label a specific protein with a fluorescent dye such as fluorescein isothiocyanate (FITC). In the following experiments, indirect immunofluorescence is used where a primary antibody first recognises and attaches to the specific protein, in this case fibrillin-1, and then a secondary antibody conjugated with FITC directed against the primary antibody is used for detection.
For all experiments, the control liquid stock was prepared by dissolving the powdered peptides in DMSO (Dimethyl Sulfoxide solvent). Peptide powders were dissolved in DMSO at recommended part per million concentrations and then further diluted in the cell culture medium and combined to obtain the desired peptide ratio.
Fibrillin-1 expression was determined using immunofluorescence. Primary human dermal fibroblast (I-IDF) cells were purchased from Promo Cell and came from a donor. […]
The antibody binding to Fibrillin-1 fibres was visualised using a Nikon Eclipse 100 microscope fluorescence setting using an excitation lens for fluorescein isothiocyanate (FITC). […] ImageJ software was used to quantify the Fibrillin-1 fibre abundance and coverage in each image using a threshold of 235 measuring the fibre density.
Results are expressed as a percentage increase in fibrillin abundance compared to untreated control. […]

Decorin = assay: ELISA assay of decorin in culture supernatant of human dermal fibroblasts; type: cell-based; conditions: 5 ppm peptide; normal human dermal fibroblasts; 72 hours; ELISA weighted to viable cells
Procedure: as §6, §7, §8

Row | Substance | LGALS3 (Cell adhesion) protein enhanced versus untreated control (LGALS3) [%] | NID1 (Basement membrane) protein enhanced versus untreated control (NID1) | RAD23A (UV DNA repair) protein enhanced versus untreated control (RAD23A) [%] | CDH2 (Cell adhesion) protein enhanced versus untreated control (CDH2) [%] | CSPG2 (Proteoglycans) protein enhanced versus untreated control (CSPG2) [%] | LAMB2 (Basement membrane) protein enhanced versus untreated control (LAMB2) [%] | Collagen 1 (PIP), % increase versus the negative control (Collagen 1 (PIP)) | enhancement of protein families (proteoglycans, UV DNA repair proteins, basement membrane proteins, cell adhesion proteins) ([1]; FIG. 1 bubble plot) | protein synthesis in comparison to the control ([1]; HDFs, LC-MS/MS) | Fibronectin, % increase versus the negative control (Fibronectin) | Fibrillin-1, percentage increase in fibrillin abundance compared to untreated control (Fibrillin-1; 12.5 ppm peptide) | Decorin, % increase versus the negative control (Decorin) | Fibrillin-1, percentage increase in fibrillin abundance compared to untreated control (Fibrillin-1; 10 ppm peptide)
1 | Pal-LSPG-OH | 24 | 6.60%^ | 94 | 10 | <1 | 22 |  |  |  |  |  |  | 
2 | Pal-GPSG-OH | 2 | 28% | 51 | 85 | 20 | 25 |  |  |  |  |  |  | 
3 | Pal-QTAV-OH (Palmitoyl-QTAV-OH; SMILES CCCCCCCCCCCCCCCC(=O)N[C@@H](CCC(N)=O)C(=O)N[C@H](C(=O)N[C@@H](C)C(=O)N[C@H](C(=O)O)C(C)C)[C@@H](C)O) [palmitoyl tetrapeptide Gln-Thr-Ala-Val with free C-terminal OH, according to the invention] | 32 | 32% | 230 | 69 | 31 | 27 | +59% | the only sequence to significantly enhance | overall enhancement of protein synthesis | +87% | +84% | +33% | 
4 | Pal-GYIL-OH |  |  |  |  |  |  | −4% |  |  | −23% |  | +2% | +3%
5 | Pal-LSPD-OH | 5 | 27% | 5 | 39 | 5 | 40 |  |  |  |  |  |  | 

From patent US12594227B2, “Tetrapeptide and compositions comprising tetrapeptides” (THE BOOTS COMPANY PLC, priority 2020, dated 2026)
